Measurements reported in patent publication US7482344B2, “Tricyclic steroid hormone nuclear receptor modulators” (Eli Lilly and Company, priority 2003, dated 2009).

Legend:
MR [1] = target: T1, MR (Homo sapiens, UniProt P08235); experiment: Mineralocorticoid Receptor Binding Assay (Method 1), [3H]-aldosterone competition; set-up: The full length human MR gene is cloned from a human kidney or human brain cDNA library; made in house; host or cells: SF9 insect cells (pAcHLT baculovirus transfer vector); details: human MR expressed in Sf9 cells, 0.5 nM [3H]-aldosterone
T1 sequence (P08235 1-984): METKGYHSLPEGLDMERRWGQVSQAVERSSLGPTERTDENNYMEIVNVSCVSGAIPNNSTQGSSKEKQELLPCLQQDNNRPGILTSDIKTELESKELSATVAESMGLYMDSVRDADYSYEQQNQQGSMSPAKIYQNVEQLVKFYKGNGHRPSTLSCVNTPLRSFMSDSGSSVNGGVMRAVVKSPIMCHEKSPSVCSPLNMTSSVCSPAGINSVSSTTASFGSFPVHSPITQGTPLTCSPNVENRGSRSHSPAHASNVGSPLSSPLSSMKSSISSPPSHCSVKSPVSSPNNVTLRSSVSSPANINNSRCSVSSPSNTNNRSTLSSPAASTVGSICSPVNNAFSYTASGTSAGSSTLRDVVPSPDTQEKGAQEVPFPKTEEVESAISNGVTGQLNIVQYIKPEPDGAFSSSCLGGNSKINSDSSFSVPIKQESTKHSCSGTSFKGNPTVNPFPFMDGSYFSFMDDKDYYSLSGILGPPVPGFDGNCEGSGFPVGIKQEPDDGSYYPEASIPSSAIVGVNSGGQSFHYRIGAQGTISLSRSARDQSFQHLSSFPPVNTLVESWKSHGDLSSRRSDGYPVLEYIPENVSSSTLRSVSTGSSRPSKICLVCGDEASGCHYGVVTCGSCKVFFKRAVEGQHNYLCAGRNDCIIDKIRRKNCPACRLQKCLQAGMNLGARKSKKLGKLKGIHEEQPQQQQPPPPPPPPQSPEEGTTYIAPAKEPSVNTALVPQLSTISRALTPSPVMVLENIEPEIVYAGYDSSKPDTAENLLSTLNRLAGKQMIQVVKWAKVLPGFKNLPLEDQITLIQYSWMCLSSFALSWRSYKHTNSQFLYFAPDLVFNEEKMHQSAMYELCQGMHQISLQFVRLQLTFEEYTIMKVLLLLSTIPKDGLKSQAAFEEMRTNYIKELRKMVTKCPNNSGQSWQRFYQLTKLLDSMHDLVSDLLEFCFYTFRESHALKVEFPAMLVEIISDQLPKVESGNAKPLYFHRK
Method: Mineralocorticoid Receptor Binding Assay (Method 1):
The full length human MR gene is cloned from a human kidney or human brain cDNA library. Briefly, using synthetic oligonucleotide primers (Eli Lilly and Company, Indianapolis) directed to nucleotides 20-54 and 3700-3666 of the human MR, polymerase chain reaction (PCR) is performed under standard conditions using a human cDNA library. The PCR reaction is performed in a final volume of 50 μl containing about 1μl of a 50× stock solution of polymerase; about 1 μl of a 50× stock solution of dNTP; about 5μl of an appropriate PCR buffer; about 1 μl of each primer; about 5 μl of a H. kidney or H. brain cDNA library; and about 36 μl of water. The reaction is allowed to denature for about 30 seconds at 95 degrees Celsius, anneal for about 30 seconds at 55 degrees Celsius, and extend for about 5 minutes at 72 degrees Celsius, the sequence being repeated for a total of about 35 cycles. The desired PCR product (3.68 Kb) is confirmed by gel electrophoresis and subsequently cut from the gel and stored at about −20 degrees Celsius until extraction. To extract the cDNA product from the agarose gel, the QIAEX II Gel Extraction protocol (QIAGEN, Inc.) is employed according to the manufacturer's instructions. Following extraction, the MR cDNA is cloned into an appropriate cloning vector (Zero Blunt TOPO PCR Cloning Kit (Invitrogen, Inc.) and a pAcHLT-baculovirus transfer vector (B.D./Pharminogen), then expressed in SF9 insect cells, essentially according to manufacturer's instructions. Sf9 cells are grown at a scale where gram quantity cell pellets are obtained for subsequent use in the MR binding assay. Harvested cell pellets are lysed by repeated freeze-thaw cycles (about 4) in a suitable lysis buffer then centrifuged at about 1×10^3G (with the supernatant being saved for future assays).
MR binding assays are performed in a final total volume of about 250 μl containing about 20-25 μg of protein and 0.5 nM of [^3H]-aldosterone plus varying concentrations of test compound or vehicle. The assay binding buffer consists of 30 mM sodium molybdate, 30 mM of TRIS-HCl, 5 mM sodium phosphate, 5 mM sodium pyrophosphate, and about 10% glycerol, pH=7.5.
Briefly, assays are prepared at RT in 96-well Falcon 3072 plates, each well containing 210 μof binding buffer, 10 μl of […], 10 μl of test compound/vehicle, and 20 μl of the resuspended receptor protein extract. Incubations are carried out at 4 degrees Celsius with shaking for about 16 hours. 200 μl aliquots of each incubation are filtered onto Millipore HA 0.45 micron 96-well filter plates, pre-moistened with cold 30 mM TRIS-HCl. The filter plates are suctioned dry with vacuum and immediately washed 3× with cold 30 mM TRIS-HCl. The plates are then punched out and the amount of receptor-ligand complex is determined by liquid scintillation counting using 4 ml of Ready Protein Plus™ liquid scintillation cocktail.

glucocorticoid receptor = target: T2, glucocorticoid receptor (Homo sapiens, UniProt P04150); experiment: Glucocorticoid Receptor Binding Assay (Method 1), [3H]-dexamethasone competition in A549 cell extract; details: 1.86 nM [3H]-dexamethasone, read-out: GR Ki (nM) Method 1
T2 construct: host or cells: A549 human lung epithelial cells
T2 sequence (P04150 1-777): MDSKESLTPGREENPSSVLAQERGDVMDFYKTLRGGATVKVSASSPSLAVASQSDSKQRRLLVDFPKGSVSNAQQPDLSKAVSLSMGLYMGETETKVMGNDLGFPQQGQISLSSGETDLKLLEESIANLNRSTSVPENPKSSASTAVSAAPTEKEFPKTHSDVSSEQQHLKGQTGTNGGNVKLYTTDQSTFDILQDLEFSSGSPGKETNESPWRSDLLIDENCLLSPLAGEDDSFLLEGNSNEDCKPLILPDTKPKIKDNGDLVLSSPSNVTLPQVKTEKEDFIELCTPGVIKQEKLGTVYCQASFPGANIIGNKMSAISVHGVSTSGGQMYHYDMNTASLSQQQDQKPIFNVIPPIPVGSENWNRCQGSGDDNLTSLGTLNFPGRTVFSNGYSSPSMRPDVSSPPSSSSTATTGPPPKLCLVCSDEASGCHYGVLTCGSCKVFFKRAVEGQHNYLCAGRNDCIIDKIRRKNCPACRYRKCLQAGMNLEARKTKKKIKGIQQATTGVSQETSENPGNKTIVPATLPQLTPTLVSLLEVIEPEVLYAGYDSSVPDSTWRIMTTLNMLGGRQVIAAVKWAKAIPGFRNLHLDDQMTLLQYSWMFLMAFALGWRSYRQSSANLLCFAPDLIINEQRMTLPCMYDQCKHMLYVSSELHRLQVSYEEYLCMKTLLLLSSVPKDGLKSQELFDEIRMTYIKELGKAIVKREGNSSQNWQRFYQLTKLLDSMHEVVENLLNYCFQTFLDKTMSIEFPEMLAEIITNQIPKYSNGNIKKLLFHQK
Method: Glucocorticoid Receptor Binding Assay (Method 1):
A549 human lung epithelial cells (ATCC) are grown at a scale where gram quantity cell pellets are obtained. Harvested cell pellets are washed twice in cold phosphate buffered saline, centrifuged, and resuspended in cold assay binding buffer. The assay binding buffer consists of 10% glycerol, 50 mM Tris-HCl (pH7.2), 75 mM sodium chloride, 1.5 mM magnesium chloride, 1.5 mM EDTA, and 10 mM sodium molybdate. Cell suspensions were lysed via sonication, centrifuged, and the “extract” supernatant is snap frozen and stored at −80 C. until needed.
GR binding assays are performed in a final volume of 140 ul containing 50-200 ug of A549 cell extract and 1.86 nM [^3H]-dexamethasone (Amersham) plus varying concentrations of test compound or vehicle. Briefly, assays are prepared at RT in 96-well Fisher 3356 plates, each well containing 100 ul of A549 cell extract, 20 ul of [^3H]-dexamethasone, and 20 ul of test compound/vehicle. Incubations are carried out at 4 degrees Celsius for 16 hours. After incubation, 70 ul of 3× dextran-coated charcoal solution is added to each reaction, mixed, and incubated for 8 minutes at RT. 3×-dextran-coated charcoal solution consists of 250 ml assay binding buffer, 3.75 g Norit A charcoal (Sigma), and 1.25 g dextran T-70 (Amersham). Charcoal/unbound radioligand complexes are removed by centrifugation of the plate and 140 ul of supernatant from each well is transferred to another 96 well Optiplate (Packard Instruments). 200 ul of Microscint-20 scinillant (Packard Instruments) is added to each well and amount of receptor bound radioligand is determined using Packard Instruments TopCount instrument.

MR [2] = target: T1, MR; set-up: host or cells: patients with advanced CHF; details: in combination with standard CHF therapy, patients suffering from advanced CHF; cited from earlier work

Ki (MR [1])	Ki (glucocorticoid receptor)	melting point	SMILES	reduced cardiac related mortality (MR [2])	reduced frequency of hospitalization (MR [2])
< 500 nM	–	–	CC(C)n1c(=O)[nH]c2cc(C=C3c4ccccc4Sc4ccccc43)ccc21 [Example 16]	–	–
< 500 nM	–	–	O=c1[nH]c2cc(C=C3c4ccccc4Sc4ccccc43)ccc2n1-c1cccnc1 [Example 17]	–	–
< 500 nM	< 10000 nM	–	COc1cccc(C=C2c3ccccc3Cc3ccccc32)c1 [Example 18, 9-(3-Methoxy-benzylidene)-9,10-dihydro-anthracene]	–	–
< 500 nM	< 10000 nM	195.8 °C	Oc1cccc(C=C2c3ccccc3Cc3ccccc32)c1 [Example 19, 3-(10H-Anthracen-9-ylidenemethyl)-phenol]	–	–
< 500 nM	< 1000 nM	–	CS(=O)(=O)Nc1cccc(C=C2c3ccccc3Oc3ccccc32)c1 [Example 20, N-(3-Xanthen-9-ylidenemethyl-phenyl)-methanesulfonamide]	–	–
–	–	–	CC(=O)S[C@@H]1CC2=CC(=O)CC[C@]2(C)[C@H]2CC[C@@]3(C)[C@@H](CC[C@@]34CCC(=O)O4)[C@H]12 [spironolactone]	30%	35%
